Laboratory results published in patent US4797284A, “Transdermal drug delivery system” (Merck & Co., Inc., priority 1986, dated 1989).

Columns and labels:
Type in all cases: physicochemical
[1] = diffusion coefficient of drug in the reservoir (Dr), release from drug-bearing film into stirred receptor solution; settings: 30 percent w/w vinyl acetate-acrylate copolymer in 53:11:36 ethyl acetate:toluene:ethanol (Gelva RA-737); timolol free base
Method: When a solid reservoir is employed, the diffusion coefficient of the drug in the reservoir, Dr, is determined by first dissolving the drug to be used in a solution of matrix-forming polymer at a concentration below the saturation solubility of the drug in the polymer solution, and then coating the solution and allowing the coating to dry or curing the coating to form a drug bearing film. The coating may be made on a releasable surface so that a free film is employed in the diffusion coefficient determination or may be made on an impermeable backing material in which case the film with backing is employed in making the determination. […] The receptor solution, which is maintained at a constant temperature, preferably 32° C., is sampled at appropriate intervals and quantitative determination of drug concentration made by HPLC (high pressure liquid chromatography) with UV detection or by other suitable means based on the physical-chemical characteristics of the drug. The value for Dr is then determined by a nonlinear regression fit of observed data to either the earlier time or the late time approximation as is appropriate for drug release from a continuous matrix containing only dissolved drug as discussed in Baker et al, "Controlled Release: Mechanisms and Rates" in Advances in Experimental Medicine and Biology, Vol 47, page 41, Eds. Tanquary et al, Plenum Press, N.Y., 1974. […]

[2] = diffusion coefficient of drug in the membrane (Dm), side-by-side diffusion cell; settings: 7.5 percent ethylene vinyl acetate copolymer film (PE-75)
Method: The diffusion coefficient of drug in the membrane, Dm or Dm', is determined by mounting the membrane between two chambers of a side-by-sidediffusion cell. A determined amount of drug in solution (donor phase) is placed in one chamber and a receptor solvent in the other, into which the drug diffuses and in which it will remain substantially below its saturation solubility (receptor phase). The cells are stirred while maintained in a constant temperature bath, preferably at 32° C. The receptor phase is sampled from time to time and assayed for drug, and steady state flux through the membrane calculated. Km, the partition coefficient between the donor solution and membrane, is determined by equilibrating a known volume of donor solution at 32° C., then assaying the solution for change in drug concentration to determine partitioning between membrane and donor. The diffusion coefficient of the drug in the membrane is calculated from the steady state Fick's law equation, which for semi-permeable membrane is
Initially, Dr was determined for timolol in a commercially available acrylate film-forming material, a 30 percent weight/weight (w/w) vinyl acetate-acrylate copolymer in 53:11:36 ethyl acetate:toluene:ethanol solvent (Gelva® RA-737 multipolymer solution obtained from Monsanto) in the manner previously described. […]

[3] = crystallization of dissolved drug in unitary solid reservoir of dissolved and undissolved drug
Excerpt: Generally, the structure of a transdermal bandage or device consists of (a) a transdermal delivery system comprising an impermeable backing, a drug-containing reservoir, a rate-controlling membrane on the side to be ultimately proximate to the skin of the patient and (b) a means of attaching the system to the dermal surface. In the known systems, the reservoir, the source of supply for the drug, whether a single solid unit, a walled unit or a unit employing drug containing micro-capsules within the reservoir structure, contains the drug partly in particulate form and partly in solution i.e., contains drug in excess of its saturation solubility. During use, the drug in solution migrates to the permeable membrane surface, passes through the membrane and onto the skin for absorption. As the dissolved drug passes through the membrane some of the undissolved drug dissolves and there is, until the supply of undissolved drug is exhausted, a mixture of both dissolved and undissolved drug in the reservoir. The presence of dissolved and undissolved drug is considered necessary to provide for the near zero order rate of delivery, zero order being the rate of delivery which is constant or independent of time. […]

## CC(C)(C)NC[C@H](O)COc1nsnc1N1CCOCC1 [timolol]
[1]
  Dr (diffusion coefficient of drug in reservoir): 1.58×10^-6 cm^2 /hour
[2]
  Dm (diffusion coefficient of drug in membrane): 2.85×10^-6 cm^2 /hour
[3]
  crystallization of dissolved drug after fabrication: the dissolved drug often slowly crystallizes subsequent to fabrication
